Paper PMC4738285 (Scientific Reports, 2016)

Tests used:
HEK-293 = test: cells; assay type: cell-based; details: Homo sapiens, HEK293, 48 h, read-out: EC50 value
HeLa cells [1] = test: cells; assay type: cell-based; details: Homo sapiens; for EC50: read-out: EC50 cell survival, clonogenic assay; for IC50: read-out: IC50 survival, clonogenic assay
SH-SY5Y = test: cells; assay type: cell-based; details: Homo sapiens, 48 h, read-out: EC50 value
HT-29 = test: cells; assay type: cell-based; details: Homo sapiens, HT-29, 48 h, read-out: EC50 value
HeLa cells [2] = details: human, 24 h
HeLa cells [3] = assay type: cell-based, human
HeLa = test: cells; assay type: cell-based; details: Homo sapiens, 48 h, read-out: EC50 value
HeLa cells [4] = assay type: cell-based, human; remark: listed apart in the source
[5] = test system: C. perfringens iota toxin on Vero cells; assay type: cell-based, African green monkey
Hsp70 [6] = target: T1, Hsp70 (Homo sapiens, UniProt P0DMV8); test: biochemical; set-up: made in house
Hsc70 [7] = target: T2, Hsc70 (Homo sapiens, UniProt P11142); test: biochemical; assay type: biochemical; set-up: made in house
Hsp70 [8] = target: T1, Hsp70; assay type: binding; set-up: made in house; details: 500 nM Hsp70, 50 μM 1; five of six regions
HeLa cells [9] = assay type: cell-based, human; remark: listed apart in the source
Hsp70 [10] = target: T1, Hsp70; details: ITC, 20 °C
Hsc70 [11] = target: T2, Hsc70; assay type: binding; set-up: endogenous in cells; host or cells: HeLa cell lysate; details: HeLa cell lysate
Hsp70 [12] = target: T1, Hsp70; assay type: biochemical; set-up: made in house; details: concentrations up to 200 μM; 0.5 μM Hsp70, 1 mM ATP
Hsp70 [13] = target: T1, Hsp70; assay type: binding; set-up: made in house; details: HeLa cell lysate
HeLa cells [14] = assay type: cell-based, human; remark: listed apart in the source
Hsp70 [15] = target: T1, Hsp70; test: biochemical
[16] = test system: iota toxin receptor binding on Vero cells; assay type: cell-based, African green monkey; details: 4 °C, 30 min
[17] = test system: C. perfringens iota toxin on Vero cells; assay type: cell-based, African green monkey; remark: listed apart in the source
Hsp70 [18] = details: read-out: dissociation constant; cited from earlier work
[19] = test system: Ia of C. perfringens iota toxin; assay type: biochemical, Clostridium perfringens

T1 sequence (P0DMV8 whole entry): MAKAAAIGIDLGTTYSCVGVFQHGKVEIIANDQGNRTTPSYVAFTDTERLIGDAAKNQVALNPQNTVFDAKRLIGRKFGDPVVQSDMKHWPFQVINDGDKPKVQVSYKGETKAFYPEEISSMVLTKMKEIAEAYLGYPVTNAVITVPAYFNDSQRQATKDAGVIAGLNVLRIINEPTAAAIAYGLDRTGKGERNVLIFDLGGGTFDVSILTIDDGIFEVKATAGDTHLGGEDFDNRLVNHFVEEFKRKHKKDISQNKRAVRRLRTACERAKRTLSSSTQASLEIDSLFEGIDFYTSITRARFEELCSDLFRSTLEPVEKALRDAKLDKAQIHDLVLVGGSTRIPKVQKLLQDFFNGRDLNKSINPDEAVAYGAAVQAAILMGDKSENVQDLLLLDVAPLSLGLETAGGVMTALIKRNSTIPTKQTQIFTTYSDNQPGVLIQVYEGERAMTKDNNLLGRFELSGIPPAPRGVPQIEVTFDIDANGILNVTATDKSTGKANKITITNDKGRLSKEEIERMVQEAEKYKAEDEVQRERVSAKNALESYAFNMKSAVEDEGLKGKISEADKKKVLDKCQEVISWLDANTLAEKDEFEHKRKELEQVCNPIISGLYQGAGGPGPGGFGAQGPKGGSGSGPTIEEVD
T2 sequence (P11142 whole entry): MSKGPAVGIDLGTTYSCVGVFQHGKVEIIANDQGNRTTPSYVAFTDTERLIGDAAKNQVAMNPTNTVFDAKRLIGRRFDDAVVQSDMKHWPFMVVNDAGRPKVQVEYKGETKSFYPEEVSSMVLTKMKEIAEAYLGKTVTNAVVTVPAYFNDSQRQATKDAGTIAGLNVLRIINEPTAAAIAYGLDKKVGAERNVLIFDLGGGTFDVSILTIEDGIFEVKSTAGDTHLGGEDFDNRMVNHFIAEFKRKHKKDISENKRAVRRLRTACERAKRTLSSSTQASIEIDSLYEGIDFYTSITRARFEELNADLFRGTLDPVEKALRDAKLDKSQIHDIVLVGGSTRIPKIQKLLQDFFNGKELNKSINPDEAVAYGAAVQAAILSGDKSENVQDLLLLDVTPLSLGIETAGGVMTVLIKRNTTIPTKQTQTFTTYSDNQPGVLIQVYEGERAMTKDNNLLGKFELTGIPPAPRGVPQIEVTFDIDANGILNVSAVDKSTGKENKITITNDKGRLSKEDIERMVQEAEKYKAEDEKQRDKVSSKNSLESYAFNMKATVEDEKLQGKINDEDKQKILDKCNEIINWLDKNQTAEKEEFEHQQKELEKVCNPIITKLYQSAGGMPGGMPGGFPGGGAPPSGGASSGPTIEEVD

Question: With `CSc1ccc2c[n+]3ccccc3cc2c1` [Compound 3] as the compound, how does the EC50 (HEK-293) read?
Answer: Its EC50 is 22.6 ± 1.3 µM.

Question: And the EC50 (HeLa cells [1])?
Answer: Its EC50 is 13.1 µM.

Question: And the IC50 (HeLa cells [1])?
Answer: Its IC50 is 13.1 µM.

Question: And the EC50 (SH-SY5Y)?
Answer: The EC50 was 70 ± 10.5 µM.

Question: And the EC50 (HT-29)?
Answer: The EC50 was 115 ± 52.4 µM.

Question: And the “compound remaining intact in HeLa cell lysate” value (HeLa cells [2])?
Answer: Its value is 90%.

Question: And the “localization of Hsp70 at 37 °C” value (HeLa cells [3])?
Answer: Its value is “did not alter”.

Question: And the “localization of Hsp70 at 42 °C” value (HeLa cells [3])?
Answer: The value was “did not alter”.

Question: And the EC50 (HeLa)?
Answer: Its EC50 is 35.8 ± 12.4 µM.

Question: And the “cleavage of procaspases 3 and 7 in combination with staurosporine” value (HeLa cells [4])?
Answer: Its value is “did not result in significant procaspase cleavage”.

Question: And the “procaspase cleavage, compound alone” value (HeLa cells [4])?
Answer: Its value is “did not result in significant procaspase cleavage”.

Question: What about the “intoxication of Vero cells with iota toxin” value [5] of the same compound?
Answer: Its value is “no comparable inhibitory effect”.

Question: And the IC50 (Hsp70 [6])?
Answer: Its IC50 is 1050 ± 53 µM.

Question: What about the IC50 (Hsc70 [7]) of the same compound?
Answer: Its IC50 is 931 ± 47 µM.

Question: What does the source list for `c1cc[n+]2cc3ccc(N4CCCC4)cc3cc2c1` [Compound 2]?
Answer: IC50 (Hsp70 [6]): 127 ± 7 µM; IC50 (Hsc70 [7]): 34 ± 3 µM

Question: Which results are given for `Nc1ccc2c[n+]3ccccc3cc2c1` [Compound 1]?
Answer: EC50 (HEK-293): 29.1 ± 1.1 µM; EC50 (HeLa cells [1]): 11.2 µM; IC50 (HeLa cells [1]): 11.2 µM; EC50 (SH-SY5Y): 58.1 ± 4.6 µM; Hsp70 binding to p53-derived peptide regions in the presence of 1 (Hsp70 [8]): abolished; EC50 (HT-29): 71.6 ± 34 µM; amount of Hsp70 in HeLa cells (HeLa cells [9]): did not influence; compound remaining intact in HeLa cell lysate (HeLa cells [2]): 90%; cytoplasmic vacuolization after heat stress (HeLa cells [3]): strong cytoplasmic vacuolization; localization of Hsp70 at 37 °C (HeLa cells [3]): did not alter; localization of Hsp70 at 42 °C (HeLa cells [3]): dramatic Hsp70 re-distribution into the whole nucleus; subcellular distribution of Hsp70 in thymidine- and nocodazole-treated cells (HeLa cells [3]): did not change; stoichiometry N (Hsp70 [10]): 1.1; TΔSITC (Hsp70 [10]; pH 7.8): 8.3 kcal/mol; binding enthalpy ΔHITC (Hsp70 [10]; pH 7.8): 1.3 ± 0.3 kcal/mol; ΔGITC (Hsp70 [10]; pH 7.8): -7.0 kcal/mol; Hsc70 bound to matrix-coupled 1 (Hsc70 [11]): no detectable amount of Hsc70; EC50 (HeLa): 19.5 ± 2.5 µM; apoptosis induction by staurosporine (HeLa cells [4]): enhanced apoptosis induction; cleavage of procaspases 3 and 7 in combination with staurosporine (HeLa cells [4]): synergistic effect; procaspase cleavage, compound alone (HeLa cells [4]): did not result in significant procaspase cleavage; ATPase activity of Hsp70 (Hsp70 [12]): remained unaffected; toxin-induced cell-rounding [5]: significantly delayed; IC50 (Hsp70 [6]): 45 ± 4 µM; Hsp70 bound to matrix-coupled 1 (Hsp70 [13]): detection of Hsp70; accumulation in G2/M phase (HeLa cells [14]): did not accumulate in the G2/M phase; cell cycle phase distribution (HeLa cells [14]): did not result in changes; cells remaining in G2/M (HeLa cells [14]): > 20%; IC50 (Hsc70 [7]): 363 ± 20 µM; Inhibition of Hsc70 less efficient compared to Hsp70 (Hsc70 [7]; luciferase refolding): 8 fold; Kd (Hsp70 [15]): 5.6 ± 3.1 µM

Question: With `F[B-](F)(F)F.[Na+]` [NaBF4] as the compound, how does the “apoptosis of HeLa cells, salt with staurosporine” value (HeLa cells [4]) read?
Answer: Its value is “do not affect”.

Question: Which “apoptosis of HeLa cells, salt with staurosporine” value (HeLa cells [4]) does the source give for `[Br-].[Na+]` [NaBr] here?
Answer: Its value is “do not affect”.

Question: Which results are given for `N#Cc1ccc(COC[C@H]2O[C@@H](n3c(NCc4ccc(Cl)c(Cl)c4)nc4c(N)ncnc43)[C@H](O)[C@@H]2O)cc1` [VER-155008]?
Answer: binding of iota toxin to the cells [16]: had no effect; round cells after acidic pulse (translocation of Ia) [17]: significantly less round cells; Kd (Hsp70 [18]): 0.3 µM; enzyme activity of Ia [19]: had no effect; intoxication of the cells with iota toxin [5]: inhibitory effect

Question: With `C[C@@H]1C[C@H]2O[C@@H]2/C=C\C=C\C(=O)Cc2c(Cl)c(O)cc(O)c2C(=O)O1` [radicicol] as the compound, how does the “binding of iota toxin to the cells” value [16] read?
Answer: Its value is “had no effect”.

Question: What about the “round cells after acidic pulse (translocation of Ia)” value [17] of the same compound?
Answer: Its value is “significantly less round cells”.

Question: What about the “enzyme activity of Ia” value [19] of the same compound?
Answer: Its value is “had no effect”.
